Source: patent EP3643303A1, “COMPOUNDS FOR USE IN THE TREATMENT OR PREVENTION OF FIBROTIC DISEASES; PHARMACEUTICAL, COSMETIC COMPOSITIONS AND USES THEREOF” (InnovativeHealth Group SL, priority 2018, dated 2020)

Tests used:
human COL1A2 promoter = assay: Col1A2 gene transcriptional activity (luciferase) in NIH-3T3-Col1A2-luc cells stimulated with TGFβ; type: cell-based, mouse; details: TGFβ 10 ng/ml, 24 h; Figure 3
Excerpt: The effect of CBD isomers on collagen transcriptional regulation in NIH-3T3 cells stably expressing the Col1A2-luc plasmid, which encodes the gene promoter of the pro-alpha2 chain component of type I collagen fused to the luciferase gene, was studied. NIH-3T3-COL1A2-Luc fibroblast cells were generated by stable transfection of the COL-1A2-Luc plasmid, containing sequences from -353 to +58 bp of the human COL1A2 promoter fused to the luciferase reporter gene, and pPURO plasmid. Cells are cultivated at a density of 1 x 10^4 cells/ml for 24 h at 37°C. Then the cells were treated with the CBD isomers at several concentrations and TGFβ (10 ng/ml) for 24 h. Then, the cells are washed with PBS and lysed in 50 µl lysis buffer containing 25 mM Tris-phosphate (pH 7.8), 8 mM MgCl2, 1 mM DTT, 1% Triton X-100, and 7% glycerol during 15 min. Luciferase activity and protein concentration is measured in the cell lysates, to calculate the RLU/µg of protein and the results expressed as the percentage of induction considering the value obtained with TGFβ as 100% activation. The protein concentration in the cell extracts was measured by the Bradford method (BioRad).

[1] = tested on: normal human dermal fibroblasts (NHDFs); assay: Collagen secretion (Sircol Soluble Collagen Assay) in TGFβ-stimulated NHDFs; type: cell-based; details: 1 h pre-treatment, TGFβ 24 h; Figure 4
Experimental: Next, NHDFs were used to correlate the effect of both isomers of CBD on Col1A2 transcriptional activity with collagen secretion. NHDFs were seeded in 24 well plates (5x10^4 cells/well), pre-treated with either (-)CBD or (+)CBD for 1 h and stimulated with TGFβ for the following 24 h. Collagen secretion was studied by collecting culture medium and measuring soluble collagen using the Sircol Soluble Collagen Assay (Biocolor, County Antrim, UK) following manufacturer's instructions.

Nrf2 pathway = assay: Nrf2 activation (ARE-Luc luciferase) in HaCaT-ARE-Luc keratinocytes; type: cell-based; details: 6 h, increasing concentrations; Figure 7
Excerpt: Nrf2 is a transcription factor which, upon activation in response to inflammatory or oxidative stress, activates a robust anti-inflammatory and cytoprotective transcription program. Therefore, Nrf2 activation may represent a novel approach for the treatment of scleroderma and other fibrotic diseases. Thus, the effect of CBD isomers on the activation of the Nrf2 pathway in the keratinocyte cell line HaCaT-ARE-Luc, containing the Nqo1 Antioxidant Response Element (ARE)-Luc reporter plasmid stably transfected, was explored. ARE is activated by all members of the CNC family of factors (Nrf1, Nrf2, Nrf3 and p45 NF-E2). The cells are cultivated in 96-well plates at the concentration of 2x10^4 cells/well in a CO2 incubator at 37°C. For induction of Nrf2 activation the cells were treated with increasing concentrations of the CBD isomers for 6 h. As a positive control the cells were treated with 0,01 mM of Tert-butyl-hydroperoxide (TBHP) for 6 h. […] Luciferase activity was measured using TriStar^2 Berthold/LB942 multimode reader (Berthold Technologies) following the instructions of the luciferase assay kit (Promega, Madison, WI, USA). The background obtained with the lysis buffer was subtracted in each experimental value, and the specific transactivation expressed as fold induction over basal levels (untreated cells).

TRPV-1 [2] = biological target: T1, TRPV-1 (Homo sapiens, UniProt Q8NER1); details: Bisogno et al. 2001; cited from earlier work
Target sequence in this assay (Q8NER1 whole entry, species assumed): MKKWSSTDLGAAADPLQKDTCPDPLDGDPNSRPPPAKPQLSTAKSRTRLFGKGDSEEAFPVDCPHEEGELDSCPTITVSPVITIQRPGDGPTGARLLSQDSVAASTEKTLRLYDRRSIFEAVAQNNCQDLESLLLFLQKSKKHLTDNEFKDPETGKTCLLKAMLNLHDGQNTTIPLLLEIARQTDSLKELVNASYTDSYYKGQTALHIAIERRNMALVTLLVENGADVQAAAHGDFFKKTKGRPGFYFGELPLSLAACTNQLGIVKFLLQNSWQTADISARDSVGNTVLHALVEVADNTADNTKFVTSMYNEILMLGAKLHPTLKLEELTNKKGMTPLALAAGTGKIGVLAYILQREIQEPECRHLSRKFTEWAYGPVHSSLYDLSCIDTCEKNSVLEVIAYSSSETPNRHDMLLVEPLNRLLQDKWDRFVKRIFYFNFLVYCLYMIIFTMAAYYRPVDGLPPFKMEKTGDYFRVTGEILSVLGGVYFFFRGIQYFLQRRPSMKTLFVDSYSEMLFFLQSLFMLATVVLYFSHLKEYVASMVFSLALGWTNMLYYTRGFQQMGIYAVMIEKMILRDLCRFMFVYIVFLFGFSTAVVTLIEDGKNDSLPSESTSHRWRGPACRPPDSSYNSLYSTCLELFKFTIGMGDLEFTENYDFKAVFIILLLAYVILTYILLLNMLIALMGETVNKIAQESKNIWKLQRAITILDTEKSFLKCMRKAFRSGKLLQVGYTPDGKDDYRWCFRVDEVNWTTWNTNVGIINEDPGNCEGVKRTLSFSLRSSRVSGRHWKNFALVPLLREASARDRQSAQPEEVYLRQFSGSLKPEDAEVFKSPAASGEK

TRPV-1 [3] = biological target: T1, TRPV-1; assay: Capsaicin-induced cytotoxicity (YOYO-1, Incucyte) in HEK-293T-TRPV1 cells; type: cell-based; design: expressed in transfected cells; host or cells: HEK-293T; details: Capsaicin 1 µM for 3 h, Figure 2B
Experimental: Capsaicin-induced cytotoxicity as a model of TRPV-1 agonistic assay was also investigated in HEK-293T-TRPV1 cells. The cells (2x10^4/well) were cultured in triplicate in 96-well microtiter plates in 200 µL of complete medium and incubated with (-)CBD or (+)CBD and then stimulated with the agonist Capsaicin (1 µM) for 3 h. Capzasepine (10 µM) was used as the positive control of TRPV-1 antagonism. Then, TRPV-1 induced cytotoxicity was measured by fluorescence using the die YOYO-1 (Life Technologies). YOYO-1 was diluted in cell culture medium and added to a final concentration of 0.1 µM to both experimental and control wells. YOYO-1 is a cell impermeant cyanine dimer nucleic acid stain that can only enter cells with a compromised plasma membrane and fluorescently stain the nuclear DNA. By adding YOYO-1 to damaged cells an increase in YOYO-1 fluorescence is detected. Treated cells are placed in an Incucyte FLR imaging system, and the YOYO-1 fluorescence is measured after 3 h. […] Object counting analysis is performed using the Incucyte FLR software to calculate the total number of YOYO-1 fluorescence positive cells and total DNA containing objects (end point). The cytotoxicity index is calculated by dividing the number of YOYO-1 fluorescence positive objects by the total number of DNA containing objects for each treatment group.
Target sequence in this assay (Q8NER1 whole entry): as the sequence (Q8NER1 whole entry, species assumed) above

## C=C(C)[C@@H]1CCC(C)=C[C@H]1c1c(O)cc(CCCCC)cc1O [(-)CBD, 2-[(1R,6R)-3-methyl-6-prop-1-en-2-ylcyclohex-2-en-1-yl]-5-pentylbenzene-1,3-diol]
Human COL1A2 promoter
  collagen promoter transcriptional activity: significantly reduced
[1]
  TGFβ-induced collagen release and deposition: significantly inhibited
Nrf2 pathway
  activation of the Nrf2 pathway: able to activate the Nrf2 pathway in keratinocytes and in a concentration-dependent manner
TRPV-1 [2]
  activity of the TRPV-1: modulated
TRPV-1 [3]
  capsaicin-induced cytotoxicity (cytotoxicity index): prevent capsaicin-induced calcium mobilization

## C=C(C)[C@H]1CCC(C)=C[C@@H]1c1c(O)cc(CCCCC)cc1O [(+)CBD, (+)Cannabidiol]
Human COL1A2 promoter
  collagen promoter transcriptional activity: significantly reduced
[1]
  TGFβ-induced collagen release and deposition: significantly inhibited
Nrf2 pathway
  activation of the Nrf2 pathway: able to activate the Nrf2 pathway in keratinocytes and in a concentration-dependent manner
TRPV-1 [2]
  activity of the TRPV-1: modulated
TRPV-1 [3]
  capsaicin-induced cytotoxicity (cytotoxicity index): prevent capsaicin-induced calcium mobilization
